Experimental data taken from PubChem BioAssay (NCI).
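These data come from cells grown in 96-well plates and exposed to compound for 48 hours at five concentrations. GI50 is the concentration that inhibits growth by half. TGI marks complete inhibition of growth.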

Key:
Test in all cases: growth of human tumour cells (NCI), 48 h
MOLT-4 leukemia = tested on: MOLT-4 leukemia
PC-3 prostate = tested on: PC-3 prostate
TK-10 renal = tested on: TK-10 renal
OVCAR-4 ovarian = tested on: OVCAR-4 ovarian
SNB-75 CNS = tested on: SNB-75 CNS
OVCAR-8 ovarian = tested on: OVCAR-8 ovarian
OVCAR-5 ovarian = tested on: OVCAR-5 ovarian
HS 578T breast = tested on: HS 578T breast
HCT-116 colon = tested on: HCT-116 colon
MDA-MB-231 breast = tested on: MDA-MB-231 breast

Row | SMILES | TGI (MOLT-4 leukemia) [µM] | TGI (PC-3 prostate) [µM] | TGI (TK-10 renal) [µM] | TGI (OVCAR-4 ovarian) [µM] | TGI (SNB-75 CNS) [µM] | TGI (OVCAR-8 ovarian) [µM] | TGI (OVCAR-5 ovarian) [µM] | TGI (HS 578T breast) [µM] | TGI (HCT-116 colon) [µM] | TGI (MDA-MB-231 breast) [µM] | GI50 (MOLT-4 leukemia) [µM] | GI50 (PC-3 prostate) [µM] | GI50 (TK-10 renal) [µM] | GI50 (OVCAR-4 ovarian) [µM] | GI50 (SNB-75 CNS) [µM] | GI50 (OVCAR-8 ovarian) [µM] | GI50 (OVCAR-5 ovarian) [µM] | GI50 (HS 578T breast) [µM] | GI50 (MDA-MB-231 breast) [µM]
1 | CN(C)CCNc1ccc2c(=O)n(CCN(C)C)c(=O)n3c4ccc(O)cc4c(=O)c1c23 | < 0.01 | 4.52 | 1.21 | 0.38 | 0.305 | 0.358 | 2.34 | 0.961 | 0.308 | 0.12 | – | – | – | – | – | – | – | – | –
2 | CCO/C(=N/S(=O)(=O)C(F)(F)F)N(C(C)C)C(C)C | > 100 | > 100 | > 100 | > 100 | – | > 100 | > 100 | > 100 | > 100 | > 100 | – | – | – | – | – | – | – | – | –
3 | CNC(C)(C)Cc1ccc(Cl)cc1 | > 100 | – | > 100 | > 100 | > 100 | > 100 | – | – | > 100 | – | – | – | – | – | – | – | – | – | –
4 | CC1=NNC(=O)C1C1C(=O)NN=C(c2c[nH]c3ccccc23)C1Br (stereo unspecified) | 80.3 | > 100 | > 100 | – | 58.9 | > 100 | > 100 | > 100 | > 100 | > 100 | – | – | – | – | – | – | – | – | –
5 | CC(=O)O[C@H]1CC(C)(C)C(=C=C/C(C)=C/C=C/C=C/C=C(C)/C=C2C=C(/C=C/[C@@]34O[C@]3(C)C[C@@H](O)CC4(C)C)C(=O)O/2)[C@](C)(O)C1 | 24.1 | 15.9 | 21.3 | > 100 | 28 | 25.2 | 68.7 | – | 50.5 | 97.4 | – | – | – | – | – | – | – | – | –
6 | O=C(/C=C(/C=C/c1ccc2[nH]ccc2c1)OB(F)F)/C=C/c1ccc2[nH]ccc2c1 | > 100 | > 100 | > 100 | 6.46 | 15.7 | > 100 | > 100 | > 100 | – | > 100 | 2.06 | 1.49 | 4.78 | 0.726 | 2.72 | 2.51 | 2.75 | 3.96 | 3.38
7 | CCOC(=O)c1c(C)n(Cc2ccc(Cl)cc2Cl)c2c1cc(O)c1[nH]c3c(c12)CCCC3 | 29.4 | 40.9 | 45.4 | 41.7 | 48.6 | 53.5 | > 100 | – | > 100 | > 100 | – | – | – | – | – | – | – | – | –
8 | CC(C)(C)c1ccccc1N1C(=O)c2ccc3c4c(ccc(c24)C1=O)N(c1ccccc1C(C)(C)C)C3=O | > 100 | > 100 | – | > 100 | – | > 100 | > 100 | > 100 | > 100 | > 100 | – | – | – | – | – | – | – | – | –
9 | COc1ccc(N2CC(=O)N(C(=O)COc3ccc(OCC(=O)N4C(=O)CN(c5ccc(OC)cc5)C4=S)cc3)C2=S)cc1 | > 100 | > 100 | > 100 | > 100 | > 100 | – | > 100 | – | 63.3 | > 100 | – | – | – | – | – | – | – | – | –
10 | O=C(Nc1ccccc1F)c1cc2ccc(O)cc2oc1=Nc1cccc(F)c1 | 44.6 | 48 | – | 53.6 | – | 23.8 | 71 | 84.4 | 24.8 | – | – | – | – | – | – | – | – | – | –
11 | Cn1nc2ccc([N+](=O)[O-])c(Cn3nnc4ccccc43)c2n1 | > 100 | – | > 100 | > 100 | > 100 | > 100 | > 100 | > 100 | > 100 | > 100 | – | – | – | – | – | – | – | – | –
12 | O=S1(=O)c2ccccc2Oc2ccc(C(/C=N/O)=N/O)cc21 | > 100 | > 100 | 30.8 | > 100 | > 100 | 47.7 | > 100 | – | > 100 | > 100 | – | – | – | – | – | – | – | – | –
13 | Cc1cc(C)nc(NS(=O)(=O)c2ccc(NC(=O)c3c4ccccc4nc4ccccc34)cc2)n1 | > 100 | > 100 | > 100 | > 100 | > 100 | > 100 | > 100 | – | > 100 | > 100 | – | – | – | – | – | – | – | – | –
14 | N#Cc1c(-c2ccc(Cl)cc2)c2c(nn3c4ccc5ccccc5c4nnc23)[nH]c1=O | > 46.4 | 7 | > 100 | 21.6 | – | 6.98 | 23.4 | 6.54 | 7.02 | 20.6 | – | – | – | – | – | – | – | – | –
15 | COc1cc2c(c(O)c1O)C(=O)C1CCC(=O)N1C2c1cccc2ccccc12 (stereo unspecified) | > 50 | > 50 | – | > 50 | > 50 | > 50 | > 50 | > 50 | > 50 | – | – | – | – | – | – | – | – | – | –
16 | Cc1ccc2nc(SCC(=O)N=Nc3c(O)[nH]c4ccccc34)n(-c3ccccc3)c(=O)c2c1 | 33.2 | 36.1 | 29.2 | 25.9 | – | – | 29.3 | 46.2 | 28.4 | 22.8 | – | – | – | – | – | – | – | – | –
17 | COc1cc(/C=C2\C(=O)N(c3cccc([N+](=O)[O-])c3)C(c3ccccc3)S2(=O)=O)cc(OC)c1OC (stereo unspecified) | > 100 | > 100 | > 100 | > 100 | > 100 | > 100 | > 100 | – | > 100 | > 100 | – | – | – | – | – | – | – | – | –
18 | CSc1ncc2c(n1)C(C#N)C1Sc3ccccc3N1C2=O (stereo unspecified) | > 100 | – | > 100 | > 100 | 66.3 | > 100 | > 100 | – | > 100 | > 100 | – | – | – | – | – | – | – | – | –
19 | Nc1n(CC(=O)c2ccccc2)nc2sc(-c3ccccc3)n[n+]12 | > 100 | 78.8 | > 100 | > 100 | > 100 | 38.8 | > 100 | > 100 | – | – | – | – | – | – | – | – | – | – | –
20 | COC(=O)[C@H]1C=NN[C@@H]1C(=O)N1[C@H]2CC3CC[C@@]2(CS1(=O)=O)C3(C)C | > 100 | > 100 | > 100 | > 100 | – | > 100 | > 100 | > 100 | > 100 | > 100 | – | – | – | – | – | – | – | – | –
21 | CC(C)=CCN1c2ccccc2NC(=O)CC1C (stereo unspecified) | > 100 | > 100 | > 100 | 73.8 | – | > 100 | > 100 | > 100 | – | > 100 | – | – | – | – | – | – | – | – | –
22 | CC(=O)NC1C(OCc2ccccc2)OC(CO)C(O)C1OCC(=O)N1CCCC1C(=O)N[C@@H](CCC(=O)NCCCCNc1c2ccccc2nc2cccc([N+](=O)[O-])c12)C(N)=O (stereo partly specified) | > 100 | 60.3 | > 100 | > 100 | 65.8 | > 100 | 88.5 | 74.8 | 64.6 | – | – | – | – | – | – | – | – | – | –
